# Measurements from publication PMC9820303, “^αN-Acetyl β-Endorphin Is an Endogenous Ligand of σ1Rs That Regulates Mu-Opioid Receptor Signaling by Exchanging G Proteins for σ2Rs in σ1R Oligomers” (International Journal of Molecular Sciences, 2022).
# Entries after “also recorded” stand apart in the source; their conditions may differ.
# Tests used:
# σ1R-BiP = target: T1, σ1R-BiP (Mus musculus, UniProt O55242); experiment: In vitro σ1R-BiP association of recombinant proteins (Western blot); format: biochemical; conditions: for effect on σ1R-BiP association: increasing concentrations, 30 min RT, vs control without ligand; for activity at σ1R-BiP against agonists / β-End 1–31: 1 nM β-End 1–31 with increasing competitor (Figure S10)
# T1 construct: The coding region of the full-length murine σ1R (AF004927); GST (N, cleaved yes); host or cells: E. coli BL21 (KRX) for σ1R
# Protocol: (§1) Figure 7 Effect of β-End 1–31, ^αN-acetyl β-End 1–31 and their N-terminal derivatives on σ1R-σ2R, σ1R-NR1 C1 and σ1R-BiP associations. Amino acid sequence of β-End 1–31 showing derivatives 1–26 and 1–27. (A) HaloLink-attached σ2Rs were incubated for 30 min at RT in the presence of σ1Rs (100 nM) in 300 μL of 50 mM Tris-HCl (pH 7.4), 0.2% CHAPS, and 2.5 mM CaCl2. After removing the unbound σ1R proteins, the effects of increasing the peptide concentrations on σ1R-σ2R associations were studied. At the end of the incubation, protein complexes bound to HaloLink-σ2R were obtained by centrifugation, washed three times, solubilized in 2× Laemmli buffer containing β-mercaptoethanol, resolved by SDS-PAGE, and analyzed by Western blotting (for more details, see Section 4). This protocol was also used to assess the effect of ligands on (B) σ1R-NR1 C1 and (C) σ1R-BiP associations. Data were compared to that of the control, which was obtained in the absence of ligands. (A–C) Data are the mean ± SD, n = 3. (D) The β-End 1–31 structural models were predicted by Novafold (DNASTAR Lasergene protein v.17, Inc., Madison, WI, USA). Ribbon model: The 3D structure, charge distribution and hydrophobicity map of β-End 1–31 are shown. Positive charges are shown in red and negative charges in blue. Polar surfaces are shown in yellow, and nonpolar surfaces are shown in orange. Linear model: the opioid (1–5) and flexible region (8–11) sequences are shown in green and orange, respectively, and the amphiphilic helix (15–25) is shown in pink.
# (§2) The recombinant σ1R (100 nM) was incubated either with Haloprotein (negative control) or together with the immobilized σ2R, NR1 C0-C1-C2 or BiP proteins in 300 µL of a buffer containing 50 mM Tris-HCl (pH 7.4) and 0.2% CHAPS in the presence of 2.5 mM CaCl2 for 30 min at RT. After removal of the unbound σ1R, the agarose-attached complexes were incubated for 30 min with rotation at RT in the presence of increasing concentrations of the ligands in a final reaction volume of 300 µL [50 mM Tris-HCl (pH 7.4), 2.5 mM CaCl2 and 0.2% CHAPS]. Ligands were usually dissolved in aqueous solutions; however, when an organic solvent such as DMSO was required to incorporate, e.g., pregnenolone sulfate, the solvent remained below 1% in the assay buffer. Agarose pellets containing the bound proteins were obtained by centrifugation, washed and resuspended thrice in the presence of 2.5 mM CaCl2, solubilized in 2× Laemmli buffer plus β-mercaptoethanol, and analyzed by Western blotting.
# (§3) Because all the assays were performed with recombinant proteins, the immune signals provided a single band of the expected size, which was used for the subsequent densitometry analysis. Accordingly, no other regions of the blots provided information and were routinely excluded from the analysis.
# Figure S8. Effect of the physiological and nonphysiological sequences of β-End 1-31 and classical σ1R ligands on BiP-σ1R, σ2R-σ1R and NR1 C1-σ1R associations . Agarose-BiP was loaded with σ1Rs, and after the unbound σ1Rs were removed, the agarose-BiP-σ1R complexes were incubated in the absence (control) and presence of increasing concentrations of (A) β-End 1-31 C-terminal physiological derivatives and (B) classical σ1R ligands. C) Agarose-σ2R loaded with σ1Rs was incubated in the absence (control) and with nonphysiological derivatives of β-End 1-31. D) Agarose-NR1 C1 loaded with σ1Rs were incubated in the absence (control) and with nonphysiological derivatives of β-End 1-31. A-D) The σ1Rs that remained attached to the agarose complexes were evaluated by Western blotting. The […]
# (1 picture or pasted object on this page, not shown here)
# Figure S10. Effect of σ1R agonist/antagonist ligands on σ1R-BiP associations. Agarose-attached BiP proteins were incubated for 30 min in the presence of recombinant σ1R (100 nM) proteins in 300 μL of 50 mM Tris-HCl (pH 7.4), 0.2% CHAPS, and 2.5 mM CaCl2. After the unbound σ1R proteins were […]
# σ1R-σ2R = σ1R-σ2R (Mus musculus, UniProt O55242); experiment: In vitro σ1R-σ2R association of recombinant proteins (HaloLink-σ2R, Western blot); format: biochemical, murine; design: The coding region of the full-length murine σ1R (AF004927); GST (N, cleaved yes); made in house; host or cells: E. coli BL21 (KRX); conditions: for effect on σ1R-σ2R association: increasing concentrations, 30 min RT, vs control without ligand; for effect on the disruption of σ1R-σ2R associations by β-End 1–31: fixed concentration of β-End 1–31 (or β-End 1–27), increasing competitor; for EC50 to disrupt σ1R-σ2R interactions (range in words): 50 mM Tris-HCl pH 7.4, 0.2% CHAPS, 2.5 mM CaCl2, 30 min RT, n = 3
# Protocol: as §1, §2, §3
# Figure S7. Effect of σ1R agonist/antagonist ligands on σ1R-σ2R heterodimers. (A-C) Agarose (Θ)- attached σ2Rs captured recombinant σ1Rs. After removing unbound σ1R proteins, the Θ-σ2R.σ1R complexes were incubated with a ﬁxed concentration of a selected L1 ligand (indicated in brackets) in the absence and presence of increasing concentrations of competing σ1R ligands as indicated. The σ1Rs that remained attached to the Θ-σ2Rs were evaluated by Western blotting. * Signiﬁcant differences with respect to the control group that was incubated without L1 ligands. ANOVA followed by the Holm-Sidak multiple comparisons test, p < 0.05. For details, see Methods and Figure 6A. Representative blots are […]
# Figure S8. Effect of the physiological and nonphysiological sequences of β-End 1-31 and classical σ1R ligands on BiP-σ1R, σ2R-σ1R and NR1 C1-σ1R associations . Agarose-BiP was loaded with σ1Rs, and after the unbound σ1Rs were removed, the agarose-BiP-σ1R complexes were incubated in the absence (control) and presence of increasing concentrations of (A) β-End 1-31 C-terminal physiological derivatives and (B) classical σ1R ligands. C) Agarose-σ2R loaded with σ1Rs was incubated in the […]
# Sequence of σ1R-σ2R (O55242 whole entry): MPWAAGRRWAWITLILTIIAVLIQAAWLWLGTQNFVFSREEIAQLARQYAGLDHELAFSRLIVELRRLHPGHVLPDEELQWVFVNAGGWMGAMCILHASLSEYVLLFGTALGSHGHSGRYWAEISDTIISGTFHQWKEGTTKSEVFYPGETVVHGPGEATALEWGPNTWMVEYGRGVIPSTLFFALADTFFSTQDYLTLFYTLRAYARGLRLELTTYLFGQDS
# T1 sequence (O55242 whole entry): as above
compound,measurement,setting,value
"Br.Br.CN(C)CCN(C)CCc1ccc(Cl)c(Cl)c1 [BD1047, N′-[2-(3,4-dichlorophenyl)ethyl]-N,N,N′-trimethylethane-1,2-diamine;dihydrobromide, reference compound]",effect on σ1R-BiP association,σ1R-BiP,did the opposite
same,effect on σ1R-σ2R association,σ1R-σ2R,did the opposite
"COC(=O)[C@]1(c2ccc(C)cc2)C[C@@H]1CN1CCC(O)(c2ccccc2)CC1 [PPCC, (1R,2S/1S,2R)-2-[4-hydroxy-4-phenylpiperidin-1-yl)methyl]-1-(4-methylphenyl) cyclopropanecarboxylate, reference compound]",effect on σ1R-BiP association,σ1R-BiP,impaired σ1R associations with σ2R and BiP
same,effect on σ1R-σ2R association,σ1R-σ2R,impaired σ1R associations with σ2R and BiP
"Cl.O=C(OCCN1CCOCC1)C1(c2ccccc2)CCCCC1 [PRE084, 2-(4-morpholinethyl)-1-phenylcyclohexanecarboxylate hydrochloride, reference compound]",effect on σ1R-BiP association,σ1R-BiP,impaired σ1R associations with σ2R and BiP
same,effect on σ1R-σ2R association,σ1R-σ2R,impaired σ1R associations with σ2R and BiP
Cc1cc(OCCN2CCOCC2)nn1-c1ccc2ccccc2c1 [S1RA],effect on σ1R-BiP association,σ1R-BiP,did the opposite
same,effect on σ1R-σ2R association,σ1R-σ2R,did the opposite
"KKGE [β-End 28–31, C-terminal tetrapeptide of β-End 1–31]",activity at σ1R-BiP against agonists / β-End 1–31,σ1R-BiP,neither exhibited activity at σ1R-BiP nor reduced the effect of β-End 1–31
same,effect on σ1R-BiP association,σ1R-BiP,weak direct effect on σ1R-BiP complexes
same,effect on the disruption of σ1R-σ2R associations by β-End 1–31,σ1R-σ2R,counteracted
same,effect on σ1R-σ2R association,σ1R-σ2R,promoted σ1R-σ2R associations
"YKKGE [β-End 27–31, C-terminal pentapeptide of β-End 1–31]",effect on σ1R-BiP association,σ1R-BiP,increased
same,effect on σ1R-σ2R association,σ1R-σ2R,reduced σ1R-σ2R
"^αN-acetyl β-End 1–31: β-End 1–31 acetylated at N terminal Y1, α position",activity at σ1R-BiP against agonists / β-End 1–31,σ1R-BiP,neither exhibited activity at σ1R-BiP nor reduced the effect of β-End 1–31
same,effect on σ1R-BiP association,σ1R-BiP,weak at σ1R-BiP associations; also recorded: inactive
same,affinity toward σ1R indicated by the potency to counteract the β-End 1–31 effect,σ1R-σ2R; competition with β-End 1–31 on σ1R-σ2R (Figure S7A),fM range
same,effect on the disruption of σ1R-σ2R associations by β-End 1–31,σ1R-σ2R,antagonized
same,effect on σ1R-σ2R association,σ1R-σ2R,strengthened
"β-End 1–26: β-End 1–31 derivative without 5 C-terminal residues (YGGFMTSEKSQTPLVTLFKNAIIKNA; Beta-endorphin; UniProt P01189 237-262, looked up, fragment)",effect on σ1R-BiP association,σ1R-BiP,disrupted these complexes with potencies in the pM/nM range
same,EC50 to disrupt σ1R-σ2R interactions (range in words),σ1R-σ2R,low–medium nM range
"β-End 1–27: β-End 1–31 derivative without 4 C-terminal residues (YGGFMTSEKSQTPLVTLFKNAIIKNAY; Beta-endorphin; UniProt P01189 237-263, looked up, fragment)",effect on σ1R-BiP association,σ1R-BiP,disrupted these complexes with potencies in the pM/nM range
same,EC50 to disrupt σ1R-σ2R interactions (range in words),σ1R-σ2R,low–medium nM range
"β-End 6–31: β-End 1–31 lacking the N-terminal met-enkephalin 1–5 sequence (TSEKSQTPLVTLFKNAIIKNAYKKGE; Beta-endorphin; UniProt P01189 242-267, looked up, fragment)",effect on σ1R-σ2R association,σ1R-σ2R,diminished σ1R-σ2R associations
"β-End 22–31: nonphysiological C-terminal sequence of β-End 1–31 (IIKNAYKKGE; Beta-endorphin; UniProt P01189 258-267, looked up, fragment)",effect on σ1R-σ2R association,σ1R-σ2R,promoted their association
